{
  "source": "patent US10744114B2",
  "about": "“Use of eupatilin as pharmaceutical composition for prevention and treatment of fibrosis using EMT inhibitory activity” (OSTEONEUROGEN INC., priority 2016, dated 2020)",
  "tested_on": "ONGHEPA1 cells",
  "test": "TGF-β-induced fibrosis of ONGHEPA1 cells (microscope)",
  "assay_type": "cell-based, mouse",
  "conditions": "24 hr; for inhibition of the progress of fibrosis (differentiation into myofibroblasts): TGF-β 5 ng/mL plus 50 μM compound; for toxicity to ONGHEPA1 cells: TGF-β plus 50 μM compound",
  "text": "The liver tissue was separated from C57BL/6 mice and a single-cell suspension thereof was made, and immortalized cells were obtained through continuous culture and were confirmed to be mesenchymal stem cells (MSC) of HSC via RT-PCR (Reverse Transcription Polymerase Chain Reaction) using MC (Immunohistochemistry) and FACS (Fluorescence-Activated Cell Sorting). This cell line was called “ONGHEPA1”, and was deposited with the Korean Collection for Type Cultures (KCTC) of the Korea Research Institute of Bioscience and Biotechnology and assigned accession number KCTC13086BP.\nUsing such properties of HSC, the fibrotic characteristics of ONGHEPA1 were measured. To induce fibrosis, TGF-β (transforming growth factor beta) was added, and the morphologies of the cells were observed after 6 hr, 12 hr, 24 hr, and 48 hr. Consequently, fibrosis was confirmed to progress considerably after 24 hr and further progress after 48 hr (A of FIG. 6).\nWhile ONGHEPA1 cells were incubated, they were treated with TGF-β to induce fibrosis, and 50 μM of eupatilin was added to the culture medium.\nIn order to more clearly evaluate the effect of eupatilin as above, changes were measured when ONGHEPA1 cells were first treated with eupatilin, washed to remove eupatilin and then treated with TGF-β to induce fibrosis. […] This means that eupatilin is directly associated with the course of fibrosis to thus inhibit the progress of fibrosis.\nOn the contrary, changes were measured when ONGHEPA1 cells were first treated with TGF-β to induce fibrosis, washed to remove TGF-β and then treated with eupatilin. […] Even when fibrosis was already progressed, eupatilin was able to restore the cells to their original normal condition.\nIn order to more clearly evaluate whether eupatilin was able to restore the cells that already undergone fibrosis to normal cells, changes were measured when ONGHEPA1 cells were treated with TGF-β for 24 hr to induce complete fibrosis and then treated with eupatilin. […] This means that fibrosis that has progressed considerably can be effectively treated using eupatilin.\nThe effects of various chromone derivatives other than eupatilin on fibrosis were measured in the same manner as in Example 3-3. While ONGHEPA1 cells were incubated, fibrosis was induced by TGF-β, and a chromone derivative was added at a concentration of 50 μM to the culture medium.",
  "data": [
    {"smiles": "COc1c(O)cc(O)c2c(=O)cc(-c3ccccc3)oc12", "note": "[wogonin, reference compound]", "values": [
      {"measurement": "inhibition of the progress of fibrosis (differentiation into myofibroblasts)", "result": "no effects or very low effects"},
      {"measurement": "inhibition of the progress of fibrosis (differentiation into myofibroblasts)", "setting": "listed as Chemical Formula 9", "result": "no effects on the inhibition of fibrosis"}
    ]},
    {"smiles": "COc1cc2oc(-c3ccc(O)c(O)c3)cc(=O)c2c(O)c1OC", "note": "[ONGH200, 2-(3,4-dihydroxyphenyl)-5-hydroxy-6,7-dimethoxy-chromone]", "values": [
      {"measurement": "inhibition of the progress of fibrosis (differentiation into myofibroblasts)", "result": "effective at inhibiting the progress of fibrosis"},
      {"measurement": "inhibition of the progress of fibrosis (differentiation into myofibroblasts)", "setting": "listed as Chemical Formula 7", "result": "superior fibrosis-inhibiting effects"}
    ]},
    {"smiles": "COc1c(-c2ccc(O)cc2)oc2cc(O)cc(O)c2c1=O", "note": "[ONGB200]", "values": [
      {"measurement": "inhibition of the progress of fibrosis (differentiation into myofibroblasts)", "result": "no effects or very low effects"},
      {"measurement": "inhibition of the progress of fibrosis (differentiation into myofibroblasts)", "setting": "listed as Chemical Formula 10", "result": "no effects on the inhibition of fibrosis"}
    ]},
    {"smiles": "COc1c(-c2ccccc2)oc2c(OC)c(O)cc(O)c2c1=O", "note": "[ONGA100]", "values": [
      {"measurement": "inhibition of the progress of fibrosis (differentiation into myofibroblasts)", "result": "no effects or very low effects"},
      {"measurement": "inhibition of the progress of fibrosis (differentiation into myofibroblasts)", "setting": "listed as Chemical Formula 8", "result": "no effects on the inhibition of fibrosis"}
    ]},
    {"smiles": "COc1c(O)cc2oc(-c3ccc(O)c(O)c3)cc(=O)c2c1O", "note": "[ONGI300, 2-(3,4-dihydroxyphenyl)-5,7-dihydroxy-6-methoxy-chromone]", "values": [
      {"measurement": "inhibition of the progress of fibrosis (differentiation into myofibroblasts)", "result": "effective at inhibiting the progress of fibrosis"},
      {"measurement": "inhibition of the progress of fibrosis (differentiation into myofibroblasts)", "setting": "listed as Chemical Formula 3", "result": "superior fibrosis-inhibiting effects"}
    ]},
    {"smiles": "COc1cc(-c2oc3cc(O)c(OC)c(O)c3c(=O)c2OC)ccc1O", "note": "[ONGH300]", "values": [
      {"measurement": "toxicity to ONGHEPA1 cells", "result": "toxicity such as necrosis"}
    ]},
    {"smiles": "COc1cc2oc(-c3ccc(O)cc3)cc(=O)c2c(O)c1OC", "note": "[ONGC200, 5-hydroxy-2-(4-hydroxyphenyl)-6,7-dimethoxy-chromone]", "values": [
      {"measurement": "inhibition of the progress of fibrosis (differentiation into myofibroblasts)", "result": "effective at inhibiting the progress of fibrosis"}
    ]},
    {"smiles": "O=c1cc(-c2ccc(O)c(O)c2O)oc2cc(O)cc(O)c12", "note": "[ONGE300]", "values": [
      {"measurement": "inhibition of the progress of fibrosis (differentiation into myofibroblasts)", "result": "no effects or very low effects"},
      {"measurement": "inhibition of the progress of fibrosis (differentiation into myofibroblasts)", "setting": "listed as Chemical Formula 11", "result": "no effects on the inhibition of fibrosis"}
    ]},
    {"smiles": "COc1ccc(-c2oc3cc(O)c(OC)c(O)c3c(=O)c2OC)cc1O", "note": "[ONGD400]", "values": [
      {"measurement": "toxicity to ONGHEPA1 cells", "result": "toxicity such as necrosis"}
    ]},
    {"smiles": "COc1c(O)cc2oc(-c3ccc(O)cc3)cc(=O)c2c1O", "note": "[ONGE200, 5,7-dihydroxy-2-(4-hydroxyphenyl)-6-methoxy-chromone]", "values": [
      {"measurement": "inhibition of the progress of fibrosis (differentiation into myofibroblasts)", "result": "effective at inhibiting the progress of fibrosis"},
      {"measurement": "inhibition of the progress of fibrosis (differentiation into myofibroblasts)", "setting": "listed as Chemical Formula 5", "result": "superior fibrosis-inhibiting effects"}
    ]},
    {"smiles": "COc1ccc(-c2cc(=O)c3c(O)c(O)c(O)cc3o2)cc1", "note": "[ONGD200]", "values": [
      {"measurement": "toxicity to ONGHEPA1 cells", "result": "toxicity such as necrosis"}
    ]}
  ]
}
